Experimental findings from patent US12048686B2, “Compositions and methods for activating NRF2-dependent gene expression” (The University of Chicago, priority 2018, dated 2024) are described below.

Entries after “also recorded” stand apart in the source; their conditions may differ.

A short description of assay [1]: LPS acute lung injury mouse model. It is filed as in vivo. To be noted: 50 mg/kg intraperitoneally. How it is done: FIG. 23. Mice treated with CBR-470-2 or vehicle (NaOH) IP and intratracheally instill LPS to induce acute lung injury.
Systemic CBR-470-2 treatment in acute lung injury mouse model reduces bronchial alveolar lavage (immune cells) cell TNF, IL1b and IL6 production (FIG. 23). C57/B6 Mice were treated with either CBR-470-2 (50 mg/kg dissolved in water and NaOH (1:1)) or vehicle (NaOH) intraperitoneally, and intratracheally instill 0.7 mg/kg of lipopolysaccharide (LPS) to induce […].

The next assay in a line: UVB skin damage model. The following applies: mouse. How it is done:
UVB Skin Damage Model. 32 5-week old Balb/c male mice were randomized into 4 groups of 8 animals such that each group had similar body weight means. Mice were prepared for removal of hair from their entire back two days prior to UVB exposure (day 3) by using an electric shaver and depilatory cream. On day 5, mice received exposure to UVB (200 mJ/cm^2) produced by a broad band UVB lamp (Dermapal UVB Rev 2) powered by a Kernel UV Phototherapy system. UVB exposure was confined to a rectangular area of ˜8 cm^2 by a lead shielding mask. UVB doses were confirmed by dosimeter measurements (Daavlin X96). Sham animals were shaved but received no UVB treatment. Mice were dosed from day 0 to study end at day 10 via oral gavage twice daily (CBR-470-2, 50 mg/kg BID PO; BARD, 3 mg/kg PO; Vehicle, 0.5% methyl cellulose/0.5% Tween80). Mice were monitored daily for body weight changes and erythema scoring from days 5 to 10. […] Blinded erythema scores were recorded by a blinded, trained investigator according to established in house scale. […]
Percent wounded area measurements. […] Red content corresponding to wounds was then quantified as a fraction of the whole imaging field and reported as percent wounded area.
Epidermal thickness measurements. […] 24 individual measurements of epidermal thickness from 8 sections spanning a 400 μm step distance were recorded per animal by a non-blinded, trained investigator. […]

The next assay concerns IMR32 cells. Briefly: IMR32 viability with co-treatments (cell titer glo). It counts as cell-based. How it is done: FIG. 38. PGK1 toxicity can be rescued with metabolites that are involved with GSH biosynthesis and quenching of reactive oxygen species and methylglyoxal. […] IMR32 cells treated for 48 hr in presence of indicated drugs.
PGK1 toxicity can be rescued with metabolites that are involved with GSH biosynthesis and quenching of reactive oxygen species and methylglyoxal.
IMR32 cells were treated for 48 hrs with CBR-470-1 and/or BBGC at combinations of doses in a synergy matrix (FIG. 41). […] Viability measured using cell titer glo assay (Promega). Viability decreased at higher concentrations of CBR-470-1 and BBGC start at 5 uM. […] Sensitivity of cell lines to direct inhibition of GLO1 (which detoxifies MGO) is generally correlated with sensitivity to PGK1 inhibition with CBR-470-1-consistent with MGO buildup playing a role in toxicity.

For `O=C(O)CN[C@H]1CS(=O)(=O)C[C@@H]1S(=O)(=O)c1ccc(Cl)c(Cl)c1` [CBR-470-2], the “IL6 gene expression, lung tissue” value in assay [1] (LPS) is “decreased gene expression of IL6”. Also, in assay [1] (LPS 0.7 mg/kg intratracheally), the “IL1b production, BAL cells” value was “decreased TNF, IL6, and IL1b production”; the “IL6 production, BAL cells” value was “decreased TNF, IL6, and IL1b production; also recorded: decreased IL-6, and mRNA expression in immune cells (BAL cells)”; the “TNF production, BAL cells” value was “decreased TNF, IL6, and IL1b production”. Moreover, in the assay “UVB skin damage model”, the “NRF2 signaling in vivo (pharmacodynamic and efficacy data)” value is “capable of modulating NRF2 signaling in vivo”.
With `CC1(C)CC(O)CC(C)(C)N1[O]` [Tempol], the “effect of co-treatment with ROS scavenger on anti-proliferative effects of CBR-470-1” value in the assay with IMR32 cells (co-treatment with CBR-470-1) was “does not effectively reduce anti-proliferative effects of CBR-470-1”.
With `CN(C)C(=N)N=C(N)N` [metformin], in the assay with IMR32 cells (across cell lines, on average, IMR32 48 hr), the “effect of co-treatment on viability effects of PGK1 inhibition” value is “do not strongly affect viability effects of PGK1 inhibition; also recorded: do not strongly effect viability effect of PGK1 inhibition”.
